In article PMC9080233, “Synthesis and biological evaluation of novel quinolone derivatives dual targeting histone deacetylase and tubulin polymerization as antiproliferative agents” (RSC Advances, 2018):

Tests used:
human recombinant HDAC1 = target: T1, human recombinant HDAC1 (Homo sapiens, UniProt Q13547); assay: HDAC activity assay (fluorogenic HDAC assay kit), HDAC1; assay type: biochemical; conditions: human recombinant HDAC1, 37 °C, 30 min
T1 construct: purchased BPS Bioscience, CA

human recombinant HDAC2 = target: T2, human recombinant HDAC2 (Homo sapiens, UniProt Q92769); assay: HDAC activity assay (fluorogenic HDAC assay kit), HDAC2; assay type: biochemical; conditions: human recombinant HDAC2, 37 °C, 30 min
T2 construct: purchased BPS Bioscience, CA

human recombinant HDAC6 = target: T3, human recombinant HDAC6 (Homo sapiens, UniProt Q9UBN7); assay: HDAC activity assay (fluorogenic HDAC assay kit), HDAC6; assay type: biochemical; conditions: for IC50: human recombinant HDAC6, 37 °C, 30 min; for Selectivity index HDAC6/1: ratio of IC50 HDAC1 to IC50 HDAC6; for Selectivity index HDAC6/2: ratio of IC50 HDAC2 to IC50 HDAC6;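 on all read-outs here: underlying HDAC activity read as fluorescence, excitation 350 nm and emission 440 nm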
T3 construct: purchased BPS Bioscience, CA
T3 sequence (Q9UBN7 1-1215): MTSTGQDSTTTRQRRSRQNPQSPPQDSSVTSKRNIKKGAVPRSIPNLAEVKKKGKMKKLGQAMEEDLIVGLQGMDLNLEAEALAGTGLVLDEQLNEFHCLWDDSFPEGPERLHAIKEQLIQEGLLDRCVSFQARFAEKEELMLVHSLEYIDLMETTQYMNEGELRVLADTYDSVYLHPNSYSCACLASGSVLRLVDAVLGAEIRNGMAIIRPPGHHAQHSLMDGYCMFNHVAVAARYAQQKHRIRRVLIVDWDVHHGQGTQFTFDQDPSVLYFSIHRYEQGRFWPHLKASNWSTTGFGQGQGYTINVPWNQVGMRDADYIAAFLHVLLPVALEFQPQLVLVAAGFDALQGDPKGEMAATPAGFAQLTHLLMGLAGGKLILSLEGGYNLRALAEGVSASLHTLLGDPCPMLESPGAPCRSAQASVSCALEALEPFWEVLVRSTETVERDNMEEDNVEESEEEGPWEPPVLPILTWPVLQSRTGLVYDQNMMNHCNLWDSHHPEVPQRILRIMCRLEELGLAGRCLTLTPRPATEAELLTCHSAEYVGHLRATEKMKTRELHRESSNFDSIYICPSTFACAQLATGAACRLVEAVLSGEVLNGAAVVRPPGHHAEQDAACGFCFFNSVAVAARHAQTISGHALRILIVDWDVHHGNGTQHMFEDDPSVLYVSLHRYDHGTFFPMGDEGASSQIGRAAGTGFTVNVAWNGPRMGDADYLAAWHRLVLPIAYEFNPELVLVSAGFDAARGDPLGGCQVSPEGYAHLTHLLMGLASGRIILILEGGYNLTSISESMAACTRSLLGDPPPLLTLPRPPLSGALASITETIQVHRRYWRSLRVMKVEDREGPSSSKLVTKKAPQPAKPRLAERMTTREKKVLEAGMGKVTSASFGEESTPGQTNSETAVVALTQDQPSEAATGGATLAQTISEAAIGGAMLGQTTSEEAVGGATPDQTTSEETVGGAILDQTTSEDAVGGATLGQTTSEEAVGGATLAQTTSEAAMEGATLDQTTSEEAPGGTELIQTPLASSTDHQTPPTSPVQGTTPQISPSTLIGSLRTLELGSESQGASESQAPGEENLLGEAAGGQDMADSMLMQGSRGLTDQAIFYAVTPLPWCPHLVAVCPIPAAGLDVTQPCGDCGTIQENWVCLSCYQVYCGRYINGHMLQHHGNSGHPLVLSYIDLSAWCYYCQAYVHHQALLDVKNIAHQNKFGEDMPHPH

tubulin = assay: Tubulin polymerization assay; assay type: biochemical; conditions: in words
[1] = test system: human lung adenocarcinoma cells A549; assay: Antiproliferative activity, CCK-8 assay, A549; assay type: cell-based; conditions: CCK-8, 72 hours, mean ± SD
liver cancer cells HepG2 = assay: Antiproliferative activity, CCK-8 assay, HepG2; assay type: cell-based; conditions: Homo sapiens, CCK-8, 72 hours, mean ± SD
[2] = test system: breast cancer cells MCF-7; assay: Antiproliferative activity, CCK-8 assay, MCF-7; assay type: cell-based; conditions: Homo sapiens, MCF7; CCK-8, 72 hours; mean ± SD
[3] = test system: prostate cancer cells PC-3; assay: Antiproliferative activity, CCK-8 assay, PC-3; assay type: cell-based; conditions: Homo sapiens; CCK-8, 72 hours; mean ± SD
[4] = test system: human cervical carcinoma cells HeLa; assay: Antiproliferative activity, CCK-8 assay, HeLa; assay type: cell-based; conditions: CCK-8, 72 hours, mean ± SD, read-out: IC50 HeLa
Protocol: (§1) Antitumor activities in vitro of synthetic compounds were measured using CCK-8 Assay Kit (BPS Bioscience, CA) according to the manufacturer's protocol. Cells were plated into 96-well plates with appropriate test compounds for 72 hours. Control cells were treated with serum free medium. Then CCK-8 solution was added to each well to determine cell viability. The IC50 values were calculated according to the dose-dependent curves (Origin software). IC50 values were determined using nonlinear regression analysis.

healthy MCF-10A cells = assay: Toxicity to healthy cells, CCK-8 assay, MCF-10A; assay type: cell-based; conditions: Homo sapiens, MCF-10A; healthy cells, CCK-8, 72 hours; >100 = not determinable up to highest concentrations tested
[5] = test system: five cancer cells, A549, HepG2, MCF-7, PC-3, HeLa; assay: Antiproliferative activity, CCK-8 assay, statements on all five cancer cell lines; assay type: cell-based, human
Protocol: as §1

T2 sequence (Q92769 whole entry): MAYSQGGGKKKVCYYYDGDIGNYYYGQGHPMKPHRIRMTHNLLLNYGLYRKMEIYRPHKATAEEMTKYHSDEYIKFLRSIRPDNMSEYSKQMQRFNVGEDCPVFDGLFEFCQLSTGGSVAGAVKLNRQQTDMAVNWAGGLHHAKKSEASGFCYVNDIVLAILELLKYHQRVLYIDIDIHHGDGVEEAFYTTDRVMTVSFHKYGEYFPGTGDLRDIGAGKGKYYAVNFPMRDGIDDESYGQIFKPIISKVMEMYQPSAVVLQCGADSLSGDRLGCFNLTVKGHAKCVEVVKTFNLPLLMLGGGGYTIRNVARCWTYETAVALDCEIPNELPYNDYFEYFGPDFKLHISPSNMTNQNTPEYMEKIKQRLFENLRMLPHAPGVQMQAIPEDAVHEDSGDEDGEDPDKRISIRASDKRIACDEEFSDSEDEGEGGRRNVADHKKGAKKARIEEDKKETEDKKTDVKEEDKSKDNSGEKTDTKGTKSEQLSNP
tubulin, sequence (P02550 whole entry): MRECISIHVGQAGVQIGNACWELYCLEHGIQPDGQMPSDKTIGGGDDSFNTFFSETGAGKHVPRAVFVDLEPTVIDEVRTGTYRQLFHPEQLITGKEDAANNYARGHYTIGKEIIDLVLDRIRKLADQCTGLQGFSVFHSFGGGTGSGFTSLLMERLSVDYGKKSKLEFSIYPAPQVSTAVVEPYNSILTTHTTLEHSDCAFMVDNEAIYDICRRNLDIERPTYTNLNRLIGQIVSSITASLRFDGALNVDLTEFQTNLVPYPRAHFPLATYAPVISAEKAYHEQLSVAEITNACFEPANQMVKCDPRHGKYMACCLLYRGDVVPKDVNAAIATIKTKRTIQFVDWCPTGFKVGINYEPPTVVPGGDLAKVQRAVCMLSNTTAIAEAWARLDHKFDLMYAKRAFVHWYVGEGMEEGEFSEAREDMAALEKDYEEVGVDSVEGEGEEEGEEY
tubulin, sequence (P02554 whole entry, further chain): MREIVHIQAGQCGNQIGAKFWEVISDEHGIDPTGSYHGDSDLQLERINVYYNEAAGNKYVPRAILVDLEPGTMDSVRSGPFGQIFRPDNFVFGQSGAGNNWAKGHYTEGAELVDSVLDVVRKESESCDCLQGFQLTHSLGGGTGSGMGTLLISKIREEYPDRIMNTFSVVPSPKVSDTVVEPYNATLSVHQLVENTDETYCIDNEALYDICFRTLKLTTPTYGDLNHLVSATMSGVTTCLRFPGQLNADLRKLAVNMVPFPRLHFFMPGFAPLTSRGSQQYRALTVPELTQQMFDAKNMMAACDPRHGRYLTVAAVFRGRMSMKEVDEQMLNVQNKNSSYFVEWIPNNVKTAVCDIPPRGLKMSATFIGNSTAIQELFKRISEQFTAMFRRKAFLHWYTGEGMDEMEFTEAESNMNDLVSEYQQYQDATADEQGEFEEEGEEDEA
T1 sequence (Q13547 whole entry): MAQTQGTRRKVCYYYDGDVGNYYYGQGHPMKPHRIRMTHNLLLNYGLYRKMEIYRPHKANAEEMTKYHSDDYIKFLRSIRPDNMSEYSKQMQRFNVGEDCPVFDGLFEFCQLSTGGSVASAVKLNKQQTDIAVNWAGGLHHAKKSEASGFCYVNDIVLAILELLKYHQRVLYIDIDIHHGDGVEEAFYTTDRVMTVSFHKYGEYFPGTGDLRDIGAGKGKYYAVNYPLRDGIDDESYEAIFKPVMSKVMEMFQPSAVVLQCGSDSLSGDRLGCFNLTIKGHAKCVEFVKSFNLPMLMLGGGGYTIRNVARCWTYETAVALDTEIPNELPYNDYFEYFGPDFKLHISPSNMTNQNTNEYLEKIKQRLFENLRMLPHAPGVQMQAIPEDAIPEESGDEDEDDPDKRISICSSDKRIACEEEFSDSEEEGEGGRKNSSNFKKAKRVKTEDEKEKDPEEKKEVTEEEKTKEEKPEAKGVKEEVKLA

| IC50 ([5]; Homo sapiens, A549, HepG2, MCF-7, PC-3, HeLa, read-out: IC50 proliferation of the five cancer cells) [µM] | Structure (SMILES) | IC50 (human recombinant HDAC1) [µM] | IC50 (human recombinant HDAC2) [µM] | IC50 (human recombinant HDAC6) [µM] | Selectivity index HDAC6/1 (human recombinant HDAC6) | Selectivity index HDAC6/2 (human recombinant HDAC6) | tubulin polymerization inhibition compared with reference compound (tubulin) | IC50 [1] [µM] | IC50 (liver cancer cells HepG2) [µM] | IC50 [2] [µM] | IC50 [3] [µM] | IC50 [4] [µM] | IC50 (healthy MCF-10A cells) [µM] | melting point [°C] | fold more potent than levofloxacin, antiproliferative activity ([5]; against all cancer cells) |
| --- | --- | --- | --- | --- | --- | --- | --- | --- | --- | --- | --- | --- | --- | --- | --- |
| – | C[C@H]1COc2c(N3CCN(C)CC3)c(F)cc3c(=O)c(C(=O)NCc4cn(CCCCCCC(=O)O)nn4)cn1c23 [Compound 7b, (S)-7-(4-((9-fluoro-3-methyl-10-(4-methylpiperazin-1-yl)-7-oxo-3,7-dihydro-2H-[1,4]oxazino[2,3,4-ij]quinoline-6-carboxamido)methyl)-1H-1,2,3-triazol-1-yl)heptanoic acid] | 2.1 ± 0.37 | 4.6 ± 0.62 | 1.1 ± 0.28 | 1.9 | 4.2 | equipotent to reference compound CA-4 | 9.3 ± 0.82 | 9.9 ± 0.62 | 7.8 ± 0.71 | 11.1 ± 1.16 | 8.4 ± 0.62 | > 100 | 187 to 190 | – |
| > 70 | C[C@H]1COc2c(N3CCN(C)CC3)c(F)cc3c(=O)c(C(=O)O)cn1c23 [Levofloxacin, levofloxacin, reference compound] | – | – | – | – | – | – | 76.3 ± 6.51 | > 100 | 64.2 ± 5.67 | > 100 | 71.1 ± 4.98 | > 100 | – | – |
| – | C[C@H]1COc2c(N3CCN(C)CC3)c(F)cc3c(=O)c(C(=O)NCc4cn(CCCCCCC(=O)NO)nn4)cn1c23 [Compound 9b, (S)-9-Fluoro-N-((1-(7-(hydroxyamino)-7-oxoheptyl)-1H-1,2,3-triazol-4-yl)methyl)-3-methyl-10-(4methylpiperazin-1-yl)-7-oxo-3,7-dihydro-2H-[1,4]oxazino[2,3,4-ij]quinoline-6-carboxamide] | 0.029 ± 0.018 | 0.041 ± 0.014 | 0.021 ± 0.007 | 1.4 | 2.0 | equipotent to reference compound CA-4 | 2.1 ± 0.26 | 2.3 ± 0.31 | 0.3 ± 0.14 | 4.9 ± 0.43 | 1.1 ± 0.15 | > 100 | – | over 20 fold |
| – | C[C@H]1COc2c(N3CCN(C)CC3)c(F)cc3c(=O)c(C(=O)OCc4cn(CCCCCCC(=O)NO)nn4)cn1c23 [Compound 8b, (S)-(1-(7-(hydroxyamino)-7-oxoheptyl)-1H-1,2,3-triazol-4-yl)methyl-9-fluoro-3-methyl-10-(4-methylpiperazin-1-yl)-7-oxo-3,7-dihydro-2H-[1,4]oxazino[2,3,4-ij]quinoline-6-carboxylate] | 0.067 ± 0.019 | 0.082 ± 0.015 | 0.03 ± 0.019 | 2.2 | 2.7 | equipotent to reference compound CA-4 | 3.5 ± 0.17 | 5.2 ± 0.56 | 0.8 ± 0.15 | 8.5 ± 0.79 | 2.7 ± 0.17 | > 100 | – | – |
